According to US20030124068A1, “Oral preparation” (priority 2000, published 2003):

Tests used:
[1] = Dissolving capacity (HAP or FAP dissolving and CaF2 dissolving); type: physicochemical; details: 1M aqueous solution of the acid containing 23% sodium fluoride, pH 4 with sodium hydroxide; diluted to 30 wt. %, stirred 24 hours with HAP, FAP, CaF2 powder
Description: Dissolving capacity was measured in the following manner. Described specifically, the preparation is diluted to 30 wt. % with deionized water. The phosphorus and calcium concentrations in the solution were each determined in advance by using a calorimetric reagent and they were subtracted later. To 100 ml of the diluted solution were added hydroxyapatite (HAP), fluorapatite (FAP) and CAF2, each in the powdery form. The resulting mixture was stirred for 24 hours by a magnetic stirrer and the reaction mixture was filtered to remove the solid matter. The phosphorus and calcium concentrations in the solution were determined by a calorimetric reagent.
As the calorimetric reagents for calcium and phosphorus, Calcium Test Wako (for determination of calcium, product of Wako Pure Chemicals) and P Test Wako (for determination of inorganic phosphorus, product of Wako Pure Chemicals) were employed, respectively.

[2] = test system: cow tooth (having a mirror polished surface); test: Whitening effect on immersed cow tooth, judged from photographs by a panel of 20 experts; details: 1M aqueous solution of the acid containing 23% sodium fluoride, pH 4; cow tooth immersed 24 hours
Description: Using acids different in pKa, 1M aqueous solutions containing 23% sodium fluoride were prepared, followed by adjustment to pH 4 with sodium hydroxide. After measuring their dissolving capacity, a cow tooth (having a mirror polished surface), which had been photographed in advance, was immersed in each solution for 24 hours. After the treatment, the tooth was taken out from the solution and photographed again. The color of the tooth before immersion was compared with that after immersion. The comparison was made as follows: A panel of 20 experts was asked to see the photographs of the tooth before and after treatment and to evaluate it as ◯ when the teeth was whitened after the treatment, while as × when no change in color was recognized. Upon evaluation, the tooth which was whitened but lost its gloss was evaluated as ×. The preparation evaluated as ◯ by at least a half of the experts was judged effective and the others were judged ineffective.
Toothpastes as shown in Table 3 were prepared in a conventional manner. Dissolving capacity of each of their 30% aqueous solutions was measured as in Example 1. Their whitening effect was measured also as in Example 1 (by immersing in the toothpaste for 24 hours).

[3] = 25° C.; acid added; cited from earlier work

| Dissolving capacity [1] | SMILES | Whitening effect [2] | pKa [3] |
| --- | --- | --- | --- |
| ∘ | CC(=O)O [Acetic acid] | ∘ |  |
| ∘ | CC(O)C(=O)O (centres unmarked) [Lactic acid] | ∘ |  |
| ∘ | O=C(O)CC(O)C(=O)O (centres unmarked) [Malic acid] | ∘ |  |
| ∘ | O=P(O)(O)O [Phosphoric acid, reference compound] |  |  |

More lines, now with the values behind:

| SMILES | Dissolving capacity [1] | Whitening effect [2] | pKa [3] |
| --- | --- | --- | --- |
| O=C(O)CC(O)(CC(=O)O)C(=O)O [Citric acid] | ∘ | ∘ | 2.9 |
| Cl [Hydrochloric acid, reference compound] | ∘ |  |  |
| O=S(=O)(O)O [Sulfuric acid, reference compound] | ∘ |  |  |
| O=C(O)C(O)C(O)C(=O)O (centres unmarked) [Tartaric acid] |  | ∘ | 2.99 |
